{
  "source": "patent US20220062218A1",
  "about": "“COMPOSITIONS AND METHODS FOR TREATING DIABETES” (ENZYCHEM LIFESCIENCES, priority 2019, published 2022)",
  "key": {"[1]": {"test_system": "Streptozotocin (STZ)-induced diabetes model", "experiment": "Streptozotocin (STZ)-induced diabetes model in mice: blood glucose, serum insulin, body weight, pancreas histopathology", "type": "in vivo", "protocol": "In order to confirm the efficacy of 1-palmitoyl-2-linoleoyl-3- acetyl-racglycerol (EC-18 or PLAG) in the treatment of diabetes disease, Streptozotocin (STZ)-induced diabetes model were used in the experiments.\nMice were divided into four groups (control group, STZ-only treatment group, PLAG-co-treatment group, and PLAG-post-treatment group). After a 16-h fast, the three treated groups except the control group were injected intraperitoneally with STZ (200 mg/kg BW) prepared fresh in citrate buffer, wherein BW means body weight. STZ-only treatment mice received no additional treatment.\nOn the same day, PLAG-co-treatment group mice began treatment with PLAG (250 mg/kg, p.o.) once daily for 3 consecutive days. The PLAG-post-treatment group received PLAG (250 mg/kg, p.o.) for 2 consecutive days beginning 1 day after STZ injection. As the PLAG, 1-palmitoyl-2-linoleoyl-3-acetyl-rac-glycerol represented by Formula 2 was used.\nBlood was collected via the retro-orbital plexus, and blood glucose levels were monitored during the experiment. Blood glucose was measured using the Accu-Chek glucometer (Roche, Seoul, Republic of Korea). FIG. 1A is a chart measuring the blood glucose of the control group and the experimental groups on the first day.\nAll mice were sacrificed on day 4, last day of experiment (day 4), serum insulin was measured (FIG. 1B). Tissues of the pancreatic tissue of the control group and the experimental group were collected and fixed in 10% formalin for further analysis. During the experiment, the weight change of the control group and the experimental groups was measured (FIG. 1C).\nPancreas tissues were fixed in 10% formalin, embedded in paraffin, and sectioned at a 4 μm thickness. For immunohistochemistry, sections were deparaffinized and […] using xylene and a graded ethanol series Staining was performed using the Real EnVision Detection System Peroxidase-DAB kit (Dako, Glostrup, Denmark) following the manufacturer's instructions, and then observed under a light microscope (Olympus, Tokyo, Japan) (FIG. 1D, 400 magnification)."}, "[2]": {"test_system": "INS-1 cells", "experiment": "Intracellular ROS generation in STZ-treated cells, flow cytometry with DCFH-DA and immunofluorescence", "type": "cell-based, rat", "protocol": "For intracellular ROS analyses after administering PLAG, cells were incubated with 2 μM of DCFH-DA (2′,7′-dichlorodihydrofluorescein diacetate, Invitrogen, Carlsbad, CA, USA) for 30 min at 37 ° C. The analysis was performed using a BD FACS Verse flow cytometer (BD Biosciences) (FIGS. 4A and 4B), and expression of reactive oxygen species (ROS) was observed by immunofluorescence assay (FIG. 4C). We further examined cell apoptosis in cells co-treated with three types of ROS inhibitor (Apocynin, MitoTEMPO, NAC) to examine the association of intracellular ROS generation with pancreatic beta cell apoptosis. […] Apocynin (NADPH oxidase inhibitor), MitoTEMPO (mitochondrial ROS inhibitor), and N-acetyl-L-cysteine (NAC, an overall ROS inhibitor) were used as the ROS inhibitor. Data are presented as mean ±SD(* P<0.05, ** P<0.005, *** P <0.001 vs control, #P<0.05, ## P<0.005 vs STZ).\nAfter treatment with PLAG and PLH(1-palmitoyl-2-linoleoyl-3-hydroxyl-rac-glycerol), apoptosis, intracellular ROS generation and glucose uptake were analyzed by flow cytometry (FIG. 7-B to 7-E). In addition, expression of GLUT2 in membrane fractions was analyzed by Western blotting (FIG.7-F). Data are presented as mean ±SD. ***P<0.001 vs. control, #P<0.05, ##P<0.005 vs. STZ. N.S.: No significance.\nCells were collected by trypsinization and washed with ice-cold PBS. For cell apoptosis analyses, INS-1 cells were incubated with annexin V (BD Biosciences, Franklin Lakes, N.J., USA) for 10 min at room temperature, and stained with 7-AAD (BD Biosciences). For intracellular reactive oxygen species (ROS) analyses, cells were incubated with 2 μM of DCFH-DA (2′,7′-dichlorodihydrofluorescein diacetate, Invitrogen, Carlsbad, Calif., USA) for 30 min at 37° C. The analysis was performed using a BD FACS Verse flow cytometer (BD Biosciences)."}, "[3]": {"test_system": "INS-1 cells", "experiment": "High glucose (HG)-induced cell apoptosis in INS-1 cells, flow cytometry", "type": "cell-based, rat", "conditions": "pre-treated with 50 or 100 μg/mL of PLAG for 1 h, then 30 mM HG for 48 h", "protocol": "Effect of PLAG on pancreatic beta cell protection was investigated after HG-treatment. HG-induced cell apoptosis was analyzed using flow cytometry. INS-1 cells were pre-treated with 50 or 100 μg/mL of PLAG for lh, and then treated with 30 mM of HG for 48h. When INS-1 cells were maintained in a high glucose conditions, there was a significant increase in cell apoptosis compared to control cells.\nINS-1 rat insulinoma pancreas beta cells were cultured in RPMI-1640 medium (Welgene, Gyeongsangbuk-do, Republic of Korea) containing 10% fetal bovine serum (Tissue Culture Biologicals, Long Beach, Calif., USA), 50 μM β-mercaptoethanol, 100 units/mL penicillin, and 100 μg/mL streptomycin (Antibiotic-Antimycotic Solution, Welgene). The cells were grown in a humidified atmosphere with 5% CO2 at 37° C. Chemicals and reagents\nPLAG was obtained from Enzychem Lifesciences (Seoul, Republic of Korea). D-glucose was purchased from Sigma-Aldrich (St. Louis, Mo., USA). PLAG was dissolved in ethanol and the final working concentration was 0.1% (v/v). D-glucose was dissolved in cell culture medium.\nCells were collected by trypsinization and washed with ice-cold PBS. For cell apoptosis analyses, INS-1 cells were incubated with annexin V (BD Biosciences, Franklin Lakes, N.J., USA) for 10 min at room temperature, and stained with 7-AAD (BD Biosciences). […]"}, "[4]": {"test_system": "GLUT2", "experiment": "Plasma membrane GLUT2 expression in high glucose-treated INS-1 cells, western blotting of membrane fractions", "type": "cell-based, rat", "conditions": "pre-treated with 100 pg/mL of PLAG for 1 h, then 30 mM HG for indicated times", "protocol": "To investigate the effect of PLAG on GLUT2 plasma membrane localization, membrane proteins were fractionated and analyzed by western blotting. INS-1 cells were pre-treated with 100 pg/mL of PLAG for lh, and then treated with 30 mM of HG for indicating times.\nFor membrane protein fractionation, we performed using the MemPER™ Plus Kit (Thermo Scientific, Waltham, Mass., USA) following the manufacturer's instructions. Proteins were separated on 12% sodium dodecyl sulfate-polyacrylamide gels and transferred to polyvinylidene difluoride membranes (EMD Millipore, Darmstadt, Germany) The membranes were blocked and incubated with primary antibodies to GLUT2 (bs-0351r, Bioss, Woburn, Mass., USA) and N+-K+ ATPase (#3010S, Cell Signaling Technology, Danvers, Mass., USA). After three washes in PBST, membranes were incubated with HRP-conjugated secondary antibodies (Enzo Life Sciences, Farmingdale, N.Y., USA) for 1 h at room temperature. Protein bands were detected using ECL reagent (Thermo Scientific) and then visualized on films."}},
  "note": "“Also recorded” adds a separate entry of the source.",
  "data": [
    {"smiles": "CCCCC/C=C\\C/C=C\\CCCCCCCC(=O)OC(COC(C)=O)COC(=O)CCCCCCCCCCCCCCC", "note": "(racemic) [PLAG, 1-palmitoyl-2-linoleoyl-3-acetyl-rac-glycerol]", "values": [
      {"measurement": "serum insulin (insulin secretion)", "setting": "[1]; day 4, STZ-only group compared with control and PLAG groups (250 mg/kg p.o.)", "value": "Insulin secretion of the STZ-only treatment group is significantly lower than the control and other experimental groups"},
      {"measurement": "body weight change", "setting": "[1]; during the experiment, STZ-only group compared with control and PLAG groups (250 mg/kg p.o.)", "value": "STZ-only treatment group has a greater weight change than the control and other experimental groups"},
      {"measurement": "blood glucose", "setting": "[1]; first day, PLAG-co-treatment group, 250 mg/kg p.o. once daily, STZ 200 mg/kg i.p., vs control group", "value": "did not have a significant increase in blood glucose"},
      {"measurement": "decrease of ROS generation, PLAG vs PLH", "setting": "[2]; Example 8", "value": "more effective than PLH"},
      {"measurement": "intracellular ROS (dose dependence)", "setting": "[2]; flow cytometry", "value": "dose-dependently decreased"},
      {"measurement": "intracellular ROS (time course)", "setting": "[2]; flow cytometry and immunofluorescence", "value": "attenuated"},
      {"measurement": "HG-induced cell apoptosis", "setting": "[3]", "value": "a decreased rate of apoptosis was observed; also recorded: dose-dependently decreased"},
      {"measurement": "GLUT2 expression in plasma membrane (time course)", "setting": "[4]", "value": "gradually decreased until 15 min, then recovered and returned to control levels at 60 min; also recorded: gradually decreased until 15min and then recovered and returned to control levels at 60 min"}
    ]}
  ]
}
